Test results taken from patent US11053204B2, “Pyrimidinyloxy benzene derivatives as herbicides” (FMC Corporation, priority 2015, dated 2021).

Legend:
Type in all cases: in vivo
[1] = tested on: ragweed (common ragweed, Ambrosia elatior); experiment: Test A postemergence, visual injury rating
How it was run: (§1)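 Scoring: eye-based comparison with untreated controls, 0 for no effect through 100 for complete control, at about day 10. Treatments: directed soil spray preemergence; foliar spray postemergence on 2–10 cm plants at the one- to two-leaf stage. Medium: loam soil with sand.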

[2] = tested on: giant foxtail (Setaria faberii); experiment: Test A postemergence, visual injury rating
How it was run: as §1

[3] = tested on: galium (catchweed bedstraw, Galium aparine); experiment: Test A postemergence, visual injury rating
How it was run: as §1

[4] = tested on: blackgrass (Alopecurus myosuroides); experiment: Test A postemergence, visual injury rating
How it was run: as §1

corn (Zea mays) = experiment: Test A postemergence, visual injury rating
How it was run: as §1

[5] = tested on: barnyardgrass (Echinochloa crus-galli); experiment: Test A postemergence, visual injury rating; details: 0 is no effect, 100 is complete control; for Barnyardgrass plant response rating: 0 to 100 scale, approximately 10 days
How it was run: as §1

[6] = tested on: wheat (Triticum aestivum); experiment: Test A postemergence, visual injury rating
How it was run: as §1

[7] = tested on: Italian ryegrass (Lolium multiflorum); experiment: Test A postemergence, visual injury rating
How it was run: as §1

[8] = tested on: pigweed (Amaranthus retroflexus); experiment: Test A postemergence, visual injury rating
How it was run: as §1

kochia (Kochia scoparia) [9] = experiment: Test C preemergence, plant response rating
[10] = tested on: pigweed, palmer (palmer pigweed, Amaranthus palmeri); experiment: Test C preemergence, plant response rating
[11] = tested on: ragweed (common ragweed, Ambrosia elatior); experiment: Test A preemergence, visual injury rating
How it was run: as §1

[12] = tested on: giant foxtail (Setaria faberii); experiment: Test A preemergence, visual injury rating
How it was run: as §1

[13] = tested on: barnyardgrass (Echinochloa crus-galli); experiment: Test A preemergence, visual injury rating
How it was run: as §1

kochia (Kochia scoparia) [14] = experiment: Test A preemergence, visual injury rating
How it was run: as §1

[15] = tested on: Italian ryegrass (Lolium multiflorum); experiment: Test A preemergence, visual injury rating
How it was run: as §1

[16] = tested on: pigweed (Amaranthus retroflexus); experiment: Test A preemergence, visual injury rating
How it was run: as §1

[17] = tested on: surinam grass (Brachiaria decumbens); experiment: Test C preemergence, plant response rating
kochia (Kochia scoparia) [18] = experiment: Test A postemergence, visual injury rating
How it was run: as §1

[19] = tested on: pigweed (Amaranthus retroflexus); experiment: Test C preemergence, plant response rating; details: Preemergence
[20] = tested on: wild mustard (Sinapis arvensis); experiment: Test C postemergence, plant response rating; details: for Mustard, Wild plant response rating: scale 0 to 100 (0 no effect, 100 complete control)
How it was run: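 Pre-emergence: seeds sown in loam soil–sand blend or silt loam and sprayed with test chemicals in a non-phytotoxic solvent mixture with surfactant. Post-emergence: plants 2 to 18 cm (1- to 4-leaf stage) in peat-based potting medium, same formulation. Greenhouse 13 to 15 d; visual rating 0 (no effect) to 100 (complete control) versus controls.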

[21] = 125 g ai/ha, 0 is no effect, 100 is complete control
[22] = 500 g ai/ha, 0 is no effect, 100 is complete control
[23] = 125 g ai/ha, 0 to 100 scale (0 no effect, 100 complete control)
[24] = 500 g ai/ha, 0 to 100 scale (0 no effect, 100 complete control)
[25] = 31 g ai/ha, 0 to 100 scale, 0 is no effect, 100 is complete control, approximately 10 days
[26] = 125 g ai/ha, 0 to 100 scale, 0 is no effect, 100 is complete control, approximately 10 days
[27] = 31 g ai/ha, 0 to 100 scale, 0 no effect, 100 complete control
[28] = 31 g ai/ha, 0 to 100 scale (0 no effect, 100 complete control)

C=C(Br)COC(=O)c1c(Br)cccc1Oc1ncc(Cl)cn1 [Compound 61]
60: Foxtail, Giant plant response rating (0 to 100 scale) [2, 21] | Galium plant response rating (0 to 100 scale) [3, 21] | Plant response rating, Surinam Grass ([17]; 62 g ai/ha, scale 0 to 100)
90: Kochia plant response rating (kochia (Kochia scoparia) [14]; [23])
75: Plant response rating, Pigweed, Palmer ([10]; 125 g ai/ha, scale of 0 to 100)
5: Plant response rating, Kochia (kochia (Kochia scoparia) [9]; 31 g ai/ha, scale 0 to 100) | Plant response rating, Kochia (kochia (Kochia scoparia) [9]; 62 g ai/ha, scale 0 to 100)
20: Corn plant response rating (0 to 100 scale) (corn (Zea mays); [21]) | Ryegrass, Italian plant response rating (0 to 100 scale) [7, 21] | Ragweed plant response rating [11, 24]
25: Plant response rating, Surinam Grass ([17]; 125 g ai/ha, scale of 0 to 100)
10: Ragweed plant response rating (0 to 100 scale) [1, 21] | Plant response rating, Surinam Grass ([17]; 31 g ai/ha, scale 0 to 100)
70: Plant response rating, Pigweed, Palmer ([10]; 62 g ai/ha, scale 0 to 100)
0: Wheat plant response rating (0 to 100 scale) [6, 21] | Plant response rating, Kochia (kochia (Kochia scoparia) [9]; 16 g ai/ha, scale 0 to 100) | Ragweed plant response rating [11, 23] | Plant response rating, Surinam Grass ([17]; 16 g ai/ha, scale 0 to 100)
30: Ragweed plant response rating (0 to 100 scale) [1, 22] | Blackgrass plant response rating (0 to 100 scale) [4, 21] | Wheat plant response rating (0 to 100 scale) [6, 22] | Plant response rating, Kochia (kochia (Kochia scoparia) [9]; 125 g ai/ha, scale of 0 to 100) | Ryegrass, Italian plant response rating [15, 23]
40: Corn plant response rating (0 to 100 scale) (corn (Zea mays); [22]) | Pigweed plant response rating (0 to 100 scale) [8, 21] | Plant response rating, Pigweed, Palmer ([10]; 16 g ai/ha, scale 0 to 100)
100: Foxtail, Giant plant response rating (0 to 100 scale) [2, 22] | Galium plant response rating (0 to 100 scale) [3, 22] | Blackgrass plant response rating (0 to 100 scale) [4, 22] | Barnyardgrass plant response rating (0 to 100 scale) ([5]; 125 g ai/ha) | Barnyardgrass plant response rating (0 to 100 scale) ([5]; 500 g ai/ha) | Pigweed plant response rating (0 to 100 scale) [8, 22] | Foxtail, Giant plant response rating [12, 23] | Foxtail, Giant plant response rating [12, 24] | Barnyardgrass plant response rating [13, 24] | Kochia plant response rating (kochia (Kochia scoparia) [14]; [24]) | Pigweed plant response rating [16, 23] | Pigweed plant response rating [16, 24]
50: Plant response rating, Pigweed, Palmer ([10]; 31 g ai/ha, scale 0 to 100) | Barnyardgrass plant response rating [13, 23]
80: Ryegrass, Italian plant response rating (0 to 100 scale) [7, 22] | Ryegrass, Italian plant response rating [15, 24]

O=C(CCC(F)(F)F)c1c(Br)cccc1Oc1ncc(Cl)cn1 [Compound 92]
90: Galium plant response rating [3, 25] | Plant response rating, Kochia (kochia (Kochia scoparia) [14]; [27]) | Kochia plant response rating (kochia (Kochia scoparia) [14]; [23])
10: Blackgrass plant response rating [4, 25] | Corn plant response rating (corn (Zea mays); [25])
100: Foxtail, Giant plant response rating [2, 26] | Galium plant response rating [3, 26] | Barnyardgrass plant response rating ([5]; 125 g ai/ha) | Kochia plant response rating (kochia (Kochia scoparia) [18]; [25]) | Kochia plant response rating (kochia (Kochia scoparia) [18]; [26]) | Pigweed plant response rating [8, 25] | Pigweed plant response rating [8, 26] | Plant response rating, Pigweed ([19]; 125 g ai/ha, scale of 0 to 100) | Plant response rating, Pigweed ([19]; 31 g ai/ha, scale 0 to 100) | Plant response rating, Pigweed ([19]; 62 g ai/ha, scale 0 to 100) | Plant response rating, Foxtail, Giant [12, 27] | Foxtail, Giant plant response rating [12, 23] | Barnyardgrass plant response rating [13, 23] | Plant response rating, Pigweed [16, 27] | Pigweed plant response rating [16, 23]
40: Corn plant response rating (corn (Zea mays); [26]) | Barnyardgrass plant response rating ([5]; 31 g ai/ha)
20: Ragweed plant response rating [1, 26] | Wheat plant response rating [6, 26]
50: Foxtail, Giant plant response rating [2, 25] | Blackgrass plant response rating [4, 26] | Ryegrass, Italian plant response rating [7, 26]
30: Plant response rating, Ryegrass, Italian [15, 27]
80: Ryegrass, Italian plant response rating [15, 23]
0: Ragweed plant response rating [1, 25] | Wheat plant response rating [6, 25] | Ryegrass, Italian plant response rating [7, 25] | Plant response rating, Ragweed [11, 27] | Ragweed plant response rating [11, 23]
70: Plant response rating, Barnyardgrass [13, 27]

O=C(CCC(F)(F)C(F)(F)F)c1c(Br)cccc1Oc1ncc(Cl)cn1 [Compound 110]
30: Foxtail, Giant plant response rating [2, 25] | Barnyardgrass plant response rating ([5]; 31 g ai/ha)
90: Foxtail, Giant plant response rating [2, 26] | Pigweed plant response rating [8, 25] | Plant response rating, Mustard, Wild ([20]; 16 g ai/ha, scale of 0 to 100) | Plant response rating, Mustard, Wild ([20]; 31 g ai/ha, scale 0 to 100)
100: Galium plant response rating [3, 26] | Kochia plant response rating (kochia (Kochia scoparia) [18]; [25]) | Kochia plant response rating (kochia (Kochia scoparia) [18]; [26]) | Pigweed plant response rating [8, 26] | Mustard, Wild plant response rating ([20]; 62 g ai/ha) | Mustard, Wild plant response rating ([20]; 125 g ai/ha) | Plant response rating, Foxtail, Giant [12, 23] | Barnyardgrass plant response rating [13, 23] | Plant response rating, Kochia (kochia (Kochia scoparia) [14]; [23]) | Plant response rating, Pigweed [16, 23]
50: Blackgrass plant response rating [4, 26] | Corn plant response rating (corn (Zea mays); [26])
60: Barnyardgrass plant response rating ([5]; 125 g ai/ha)
20: Corn plant response rating (corn (Zea mays); [25]) | Wheat plant response rating [6, 26] | Ryegrass, Italian plant response rating [7, 26]
70: Galium plant response rating [3, 25] | Plant response rating, Ryegrass, Italian [15, 23]
10: Plant response rating, Kochia (kochia (Kochia scoparia) [14]; [27])
0: Ragweed plant response rating [1, 25] | Ragweed plant response rating [1, 26] | Blackgrass plant response rating [4, 25] | Wheat plant response rating [6, 25] | Ryegrass, Italian plant response rating [7, 25] | Plant response rating, Ragweed [11, 27] | Plant response rating, Ragweed [11, 23] | Plant response rating, Ryegrass, Italian [15, 27]
40: Plant response rating, Barnyardgrass [13, 27] | Plant response rating, Pigweed [16, 27]
80: Plant response rating, Foxtail, Giant [12, 27]

FC(F)(F)CCCCc1c(Cl)cccc1Oc1ncc(Cl)cn1 [Compound 137]
0: Wheat plant response rating [6, 28] | Plant response rating, Ragweed [11, 27] | Plant response rating, Ragweed [11, 23] | Plant response rating, Barnyardgrass [13, 27] | Plant response rating, Kochia (kochia (Kochia scoparia) [14]; [27]) | Plant response rating, Ryegrass, Italian [15, 27]
20: Barnyardgrass plant response rating ([5]; 31 g ai/ha) | Plant response rating, Ryegrass, Italian [15, 23]
40: Ragweed plant response rating [1, 26] | Galium plant response rating [3, 28]
70: Plant response rating, Foxtail, Giant [12, 27] | Plant response rating, Kochia (kochia (Kochia scoparia) [14]; [23])
80: Pigweed plant response rating [8, 28]
30: Blackgrass plant response rating [4, 26] | Ryegrass, Italian plant response rating [7, 26]
100: Galium plant response rating [3, 26] | Kochia plant response rating (kochia (Kochia scoparia) [18]; [26]) | Pigweed plant response rating [8, 26] | Plant response rating, Mustard, Wild ([20]; 16 g ai/ha, scale of 0 to 100) | Mustard, Wild plant response rating ([20]; 62 g ai/ha) | Mustard, Wild plant response rating ([20]; 125 g ai/ha) | Plant response rating, Foxtail, Giant [12, 23] | Plant response rating, Pigweed [16, 23]
10: Ragweed plant response rating [1, 28] | Foxtail, Giant plant response rating [2, 28] | Blackgrass plant response rating [4, 28] | Corn plant response rating (corn (Zea mays); [28]) | Corn plant response rating (corn (Zea mays); [26]) | Wheat plant response rating [6, 26] | Ryegrass, Italian plant response rating [7, 28] | Plant response rating, Pigweed [16, 27]
90: Kochia plant response rating (kochia (Kochia scoparia) [18]; [28]) | Plant response rating, Barnyardgrass [13, 23]
60: Foxtail, Giant plant response rating [2, 26] | Barnyardgrass plant response rating ([5]; 125 g ai/ha)
85: Plant response rating, Mustard, Wild ([20]; 31 g ai/ha, scale 0 to 100)
